Measurements from patent publication US20170135996A1, “PHARMACEUTICAL DEPOT FOR N-{5-[(CYCLOPROPYLAMINO)CARBONYL]-2-METHYLPHENYL)-3-FLUORO-4-(PYRIDIN-2-YLMETHOXY)BENZAMIDE” (AstraZeneca AB, priority 2008, published 2017).

Assays:
[1] = Synovial fluid pharmacokinetics after intra-articular injection of unformulated PA; assay type: in vivo; conditions: rat, 15 ng in 5 μl intra-articular
Protocol: Unformulated N-{5-[(cyclopropylamino)carbonyl]-2-methylphenyl}-3-fluoro-4-(pyridin-2-ylmethoxy)benzamide was intra-articularly injected (15 ng in 5 μl injection in PBS) to rats and synovial fluid concentrations were determined at 15, 30 and 60 minutes post dose. The synovial fluid from the rat knee joint was sampled using a knee wash methodology. The knee was exposed and a transverse cut made to the patellar tendon proximal to the tibia. The knee cavity was opened up by dissection, and the knee lavaged between the tibial and femoral condyles with 3×25 μl PBS using an eppendorf pipette.

[2] = Systemic pharmacokinetic parameters in the rat; assay type: in vivo; parameters: systemic Vdss: unit not given here
[3] = system: rat mono-iodoacetate (MIA) model of joint pain; test: Rat mono-iodoacetate (MIA) model of joint pain, weight bearing asymmetry; assay type: in vivo; conditions: unformulated, 29 μg/ml (69 μM) in 5 μl intra-articular, 3 days post MIA
Protocol: All studies were carried out in a rat mono-iodoacetate (MIA) model of joint pain as a screen for analgesia of pain driven by joint inflammation and destruction (see Ivanavicius et al., 2007 Pain 128 p272). The MIA model induces an early synovitis (day 3) followed by progressive loss of articular cartilage, and subchondral bone pathology by day 14.
N-{5-[(cyclopropylamino)carbonyl]-2-methylphenyl}-3-fluoro-4-(pyridin-2-ylmethoxy)benzamide was formulated into PLGA microspheres (50:50 PLGA as in Example 1) and tested in the MIA model. Rats were injected intra-articularly with MIA on day 0. Three days post MIA (to allow disease to progress) animals were injected intra-articularly with formulated N-{5-[(cyclopropylamino)carbonyl]-2-methylphenyl}-3-fluoro-4-(pyridin-2-ylmethoxy)benzamide in 50:50 PLGA (200 μg/30 μl) or with microsphere formulation ([…]).
A dose of 29 μg/ml (69 μM) of N-{5-[(cyclopropylamino)carbonyl]-2-methylphenyl}-3-fluoro-4-(pyridin-2-ylmethoxy)benzamide was delivered in a 5 μl injection volume to give a Cmin concentration of 1 μM at 1.5 hours. The dosing was carried out 3 days post MIA at the same time point that formulated N-{5-[(cyclopropylamino)carbonyl]-2-methylphenyl}-3-fluoro-4-(pyridin-2-ylmethoxy)benzamide as the PA were dosed. […]

[4] = Hydrolytic stability of PA in the acidic microclimate of the degrading polymer; assay type: physicochemical; conditions: acidic microclimate created upon degradation of the polymer

## Cc1ccc(C(=O)NC2CC2)cc1NC(=O)c1ccc(OCc2ccccn2)c(F)c1 [PA, N-{5-[(cyclopropylamino)carbonyl]-2-methylphenyl}-3-fluoro-4-(pyridin-2-ylmethoxy)benzamide]
[1]
  Clearance (Cl): 61 µL/h
  Volume of distribution (Vdss): 9 µL
[1]; read-out: Half-life (t1/2) (converted)
  half-life: 12 min
[2]
  systemic Vdss: 1.71 kg⁻¹
[2]; in vivo, read-out: systemic Cl
  clearance: 14 mL/min/kg
[3]
  efficacy in MIA model (% weight distribution): no efficacy
[4]
  hydrolytic stability: hydrolytically stable
